≈ marks a conversion by molar mass, not a printed value.
How the values were obtained:
[1] = tested on: human hepatoma PLC/PRF/5 cells; settings: human hepatoma PLC/PRF/5 cells in vitro; Lin et al., 1991, 1992; cited from earlier work
[2] = tested on: KB cells; settings: KB cells in vitro; Lin et al., 1991, 1992; cited from earlier work
[3] = tested on: KB cells; test: microassay for anticellular effect (cytotoxicity, ED50), KB cells; assay type: cell-based, human; settings: for IC50: Homo sapiens, 96 h; for inhibitory activity in words (KB): KB cells in vitro
Description: (§1) The name PLC/PRF/5 designates human primary liver cancer cells; the symbol KB designates epidermoid carcinoma cells.
(§2) PLC/PRF/5 cells were isolated from human hepatoma and are known to produce HBs Ag continuously in culture fluids. The cells were grown as continuous cultures in a growth medium consisting of Dulbecco's modified Eagle medium (DMEM, GIBCO, Grand Island, N.Y.), 10% fetal bovin serum (FBS, GIBCO), 100 IU/ml penicillin, 100 µg/ml streptomycin and 2 mM L-glutamine. The KB cells were maintained on DMEM containing 10% FBS L-glutamine and antibiotics. For the microassay, the growth medium was supplemented further with 10 mM Hepes buffer, pH 7.3.
(§3) The ED50 values were calculated from a semilog plot of the drug concentration vs. the percentage of viable cells on day 4.

[4] = tested on: human hepatoma PLC/PRF/5 cells; test: microassay for anticellular effect (cytotoxicity, ED50), PLC/PRF/5 cells; assay type: cell-based; settings: for IC50: Homo sapiens; for IC50 / ED50 (PLC/PRF/5): PLC/PRF/5 cells, % viable cells on day 4, n = 8, significant activity requires ED50 < 4.0 ug/ml; for inhibitory activity in words (PLC/PRF/5): human hepatoma PLC/PRF/5 cells in vitro
Description: as §1, §2, §3

[5] = tested on: leukemia cells; settings: Habib et al., 1987; cited from earlier work
[6] = tested on: epidermis carcinoma KB cells; test: Inhibition of Macromolecular Synthesis ([3H]-thymidine, -uridine or -methionine incorporation), KB cells; assay type: cell-based, human; settings: for effects on DNA, RNA and protein synthesis (KB): FIGS. 2, 4, 6
Description: (§4) The activity of compounds 16, 17 and 21 on macromolecular synthesis were determined by measuring the isotopic incorporation of [^3 H]-thymidine, -uridine and -methionine in the human PLC/PRF/5 and KB cells respectively.
(§5) PLC/PRF/5 cells were obtained from human hepatoma and are known to produce HBs Ag continuously in culture fluids. Human hepatoma PLC/PRF/5 and epidermis carcinoma KB cells were maintained in Dulbeceo's modified Eagle medium (DMEM, Gibco BRL Grand Island, N.Y., U.S.A.), containing 10% fetal bovine serum (FBS, Gibco BRL), 2 mM L-glutamine, 100 units mL-1 penicillin, 100 μg mL-l streptomycin. The 212 cells were maintained in Minimum essential alpha medium (MEM, Gibco BRL), containing 10% calf serum (Gibco BRL). For microassay, the growth medium was supplemented with 10 mM HEPES buffer, pH 7.3 and incubated at 37° C. in a CO2 incubation.
(§6) Inhibition of Macromolecular Synthesis. The synthesis of macromolecules were measured by the incorporation of ^3 H-thymidine, -uridine or -methionine (New England) Nuclear, Boston, Mass., USA) into the tumor cells. Briefly, the tumor cell (1 1.5×10^4 /100 μl/well) maintained in growth medium with or without drugs in microplates were incubated at 37° C. The cells after pulsed labeling with [^3 H]-thymidine, -uridine, or -methionine for 18 hrs at day 4 post-treatment were harvested and loaded onto glass filter paper (Skatron. Va., USA). The incorporation activities of the cells were measured by the liquid scintillation counter (LS-5000 TA, Beckman Calif., USA). All treatments were conducted in quadruplicate and the mean values were used for analysis. Each experiment was repeated at least 3 times. The data shown are mean counts per minute (CPM)±SEM. Percent inhibition of [^3 H]-thymidine, -uridine, or -methionine incorporation was calculated as follows: [formula]

[7] = tested on: human PLC/PRF/5 cells; test: Inhibition of Macromolecular Synthesis ([3H]-thymidine, -uridine or -methionine incorporation), PLC/PRF/5 cells; assay type: cell-based; settings: for dependence of inhibition of macromolecular biosynthesis on concentration and time (PLC/PRF/5): PLC/PRF/5 cells; for effects on DNA, RNA and protein synthesis (PLC/PRF/5): human PLC/PRF/5 cells, FIGS. 1, 3, 5; for suppression of cellular DNA, RNA and protein synthesis: overall conclusion, cell line not stated
Description: as §4, §5, §6

[8] = KB cells, % viable cells on day 4, n = 8, significant activity requires ED50 < 4.0 ug/ml

In the case of dihydrocyclo-artomunin, the “cytotoxic effects (PLC/PRF/5), isolated natural compounds” value [1] is listed as “exhibited cytotoxic effects” and the “cytotoxic effects (KB), isolated natural compounds” value (from here on “cytotoxic effects (KB)”) [2] is listed as “exhibited cytotoxic effects”.
For O=c1c2ccccc2oc2cc(O)ccc12 [Compound 13, 3-hydroxyxanthone], the IC50 [3, 8] was 0.77 µg/mL (≈ 3.63 µM), the “inhibitory activity in words (KB)” value [3] was “significant and potent inhibitory activity” and the IC50 ([4]; PLC-PRF-5, 96 h) was 3.73 µg/mL (≈ 17.6 µM). The “ED50 (PLC/PRF/5)” value ([4]; 5760 min) was 3.75 µg/mL (≈ 17.7 µM) and the “inhibitory activity in words (PLC/PRF/5)” value [4] was “significant and potent inhibitory activity”.
For O=c1c2ccccc2oc2cc(OCC3CO3)ccc12 (stereo not shown) [Compound 14, 3-(2,3-Epoxypropoxy)xanthone], the IC50 [3, 8] was 0.85 µg/mL (≈ 3.17 µM), the IC50 ([4]; 96 h) was 1.43 µg/mL (≈ 5.33 µM) and the “inhibitory activity in words (PLC/PRF/5)” value [4] was “enhanced very markedly the inhibitory effects”.
For N.N.[Cl][Pt][Cl] [Cisplatin, reference compound], the “ED50 (KB)” value [3, 8] was 0.16 µg/mL and the “ED50 (PLC/PRF/5)” value [4] was 5.29 µg/mL.
In the case of CC(C)=CC1Oc2cc(O)ccc2-c2oc3c4c(cc(O)c3c(=O)c21)OC(C)(C)C=C4 (stereo not shown) [cyclomorusin], the “cytotoxic effects (PLC/PRF/5), isolated natural compounds” value [1] is listed as “exhibited cytotoxic effects” and the “cytotoxic effects (KB)” value [2] is listed as “exhibited cytotoxic effects”.
For 3',4'-deoxy-psorospermin, the “cytotoxic effects against leukemia cells” value [5] is listed as “strong cytotoxic effects”.
In the case of cyclo-mulberrin, the “cytotoxic effects (PLC/PRF/5), isolated natural compounds” value [1] is listed as “exhibited cytotoxic effects” and the “cytotoxic effects (KB)” value [2] is listed as “exhibited cytotoxic effects”.
In the case of 3',4'-deoxy-4'-chloropsorspermin-3'-ol, the “cytotoxic effects against leukemia cells” value [5] is listed as “strong cytotoxic effects”.
In the case of “O^5 -methyl-3',4'-deoxypsorospermin-3'-ol”, the “cytotoxic effects against leukemia cells” value [5] is listed as “strong cytotoxic effects”.
For O=c1c2ccc(OCC3CO3)cc2oc2cc(OCC3CO3)ccc12 (stereo not shown) [Compound 17, 3,6-di(2,3-epoxypropxy)xanthone], the “dependence of inhibition of macromolecular biosynthesis on concentration and time (KB)” value (“dependence of inhibition … (KB)” for short) [6] was “only correlated with the concentration of drug treatment”, the “effects on DNA, RNA and protein synthesis (KB)” value (from here on “effects on DNA … (KB)”) [6] was “not apparent” and the IC50 [3, 8] was 0.11 µg/mL (≈ 0.323 µM). For the same compound, the “dependence of inhibition of macromolecular biosynthesis on concentration and time (PLC/PRF/5)” value (“dependence of inhibition … (PLC/PRF/5)” below) [7] was “correlated with the concentration and the period of drug treatment”, the “effects on DNA, RNA and protein synthesis (PLC/PRF/5)” value (“effects on DNA … (PLC/PRF/5)” below) [7] was “effects are significant at low concentration” and the “suppression of cellular DNA, RNA and protein synthesis” value (from here on “suppression of cellular DNA”) [7] was “suppress cellular DNA, RNA and protein synthesis”. For the same compound, the IC50 ([4]; 96 h) was 0.24 µg/mL (≈ 0.705 µM).
In the case of CC(C)=CC1Oc2cc(O)ccc2-c2oc3cc(O)cc(O)c3c(=O)c21 (stereo not shown) [cyclocommunol], the “cytotoxic effects (PLC/PRF/5), isolated natural compounds” value [1] is given as “exhibited cytotoxic effects” and the “cytotoxic effects (KB)” value [2] is given as “exhibited cytotoxic effects”.
For dihydroisocycloartomunin, the “cytotoxic effects (PLC/PRF/5), isolated natural compounds” value [1] is given as “exhibited cytotoxic effects” and the “cytotoxic effects (KB)” value [2] is given as “exhibited cytotoxic effects”.
For O=c1c2ccc(OCC3CO3)cc2oc2ccc(OCC3CO3)cc12 (stereo not shown) [Compound 16, 2,6-di(2,3-epoxypropoxy) xanthone], the “dependence of inhibition … (KB)” value [6] was “only correlated with the concentration of drug treatment”, the “effects on DNA … (KB)” value [6] was “not apparent” and the IC50 [3, 8] was 0.0043 µg/mL (≈ 0.0126 µM). For the same compound, the “inhibitory activity in words (KB)” value [3] was “more potent inhibitory activity”, the “ED50 potency relative to cisplatin (KB)” value ([3]; KB cells, versus cisplatin) was “over 40 times” and the “dependence of inhibition … (PLC/PRF/5)” value [7] was “correlated with the concentration and the period of drug treatment”. The “effects on DNA … (PLC/PRF/5)” value [7] was “effects are significant at low concentration”, the “suppression of cellular DNA” value [7] was “suppress cellular DNA, RNA and protein synthesis” and the IC50 ([4]; 96 h) was 0.23 µg/mL (≈ 0.676 µM).
For COc1cc2c(c3oc4c(O)cccc4c(=O)c13)C[C@H]([C@@]1(C)CO1)O2 [Psorospermin], the “cytotoxic effects against leukemia cells” value [5] is listed as “strong cytotoxic effects”.
For CC(C)=CC1Oc2cc(O)ccc2-c2oc3cc(O)c(/C=C/C(C)C)c(O)c3c(=O)c21 (stereo not shown) [cyclocommunin], the “cytotoxic effects (PLC/PRF/5), isolated natural compounds” value [1] is listed as “exhibited cytotoxic effects” and the “cytotoxic effects (KB)” value [2] is listed as “exhibited cytotoxic effects”.
In the case of C=C(C)C1Cc2c(oc3c4c(cc(O)c3c2=O)OC(C)(C)C=C4)-c2c(O)cc(OC)c(O)c21 (stereo not shown) [artomunoxanthone], the “cytotoxic effects (PLC/PRF/5), isolated natural compounds” value [1] is listed as “exhibited cytotoxic effects” and the “cytotoxic effects (KB)” value [2] is listed as “exhibited cytotoxic effects”.
For COc1cc2c(cc1O)-c1oc3c4c(cc(O)c3c(=O)c1C(C=C(C)C)O2)OC(C)(C)C=C4 (stereo not shown) [cycloartomunin], the “cytotoxic effects (PLC/PRF/5), isolated natural compounds” value [1] is listed as “exhibited cytotoxic effects” and the “cytotoxic effects (KB)” value [2] is listed as “exhibited cytotoxic effects”.
In the case of O=c1c2cccc(OCC3CO3)c2oc2cc(OCC3CO3)cc(O)c12 (stereo not shown) [Compound 21, 3,5-di(2,3-epoxypropoxy)-1-hydroxyxanthone], the “dependence of inhibition … (KB)” value [6] is reported as “only correlated with the concentration of drug treatment”, the “effects on DNA … (KB)” value [6] is reported as “not apparent” and the IC50 [3, 8] is reported as 0.089 µg/mL (≈ 0.25 µM). For the same compound, the “inhibitory activity in words (KB)” value [3] was “significant novel inhibitory activity”, the “dependence of inhibition … (PLC/PRF/5)” value [7] was “correlated with the concentration and the period of drug treatment” and the “effects on DNA … (PLC/PRF/5)” value [7] was “effects are significant at low concentration”. The “suppression of cellular DNA” value [7] was “suppress cellular DNA, RNA and protein synthesis”, the IC50 ([4]; 96 h) was 0.061 µg/mL (≈ 0.171 µM) and the “inhibitory activity in words (PLC/PRF/5)” value [4] was “significant novel inhibitory activity”.
In the case of 3',4'=deoxypsorospermin-3',4'-diol, the “cytotoxic effects against leukemia cells” value [5] is listed as “strong cytotoxic effects”.
For artomunoxanth-otrione epoxide, the “cytotoxic effects (PLC/PRF/5), isolated natural compounds” value [1] is given as “exhibited cytotoxic effects” and the “cytotoxic effects (KB)” value [2] is given as “exhibited cytotoxic effects”.

Source: patent US5981774A, “Compounds for the treatment of hepatoma” (National Science Council, priority 1993, dated 1999)
